Measurements published in US11849726B2, “Microbicidal composition” (Lanxess Corporation, priority 2016, dated 2023).

Experiments:
Assay type in all cases: cell-based
[1] = tested on: Aspergillus brasiliensis ATCC #16404; assay: MIC / synergy index test in 96 well microtiter plates, mold; details: A. brasiliensis ATCC #16404, contact time 3 days, potato dextrose broth
Method: (§1) Phenoxyethanol and Dipropylene glycol phenyl ether were evaluated for synergy by determining the synergy index (S.I.) of the combination. Synergy index was calculated based on minimum inhibitory concentrations (MIC) of two antimicrobial compounds (A and B) alone and in combinations. The MIC test were run in accordance with the method described in U.S. Pat. No. 9,034,905. The tests organisms were Gram negative bacteria (Pseudomonas aeruginosa ATCC #15442), Gram positive bacteria (Staphylococcus aureus ATCC #6538), and yeast (Candida albicans ATCC #10231) and mold (Aspergillus brasiliensis ATCC #16404). Contact time for the bacteria was 24 and 48 hours, yeast was 48 and 72 hrs, and 3 and 7 days for mold. The test was carried out in 96 well microtiter plates.
(§2) SI is calculated as follows: Ca/CA+Cb/CB=Synergy Index (“SI”) Wherein: • CA=concentration of compound A in ppm, acting alone, which produced an end point (MIC of Compound A). • Ca=concentration of compound A in ppm, in the mixture, which produced an end point. • CB=concentration of compound B in ppm, acting alone, which produced an end point (MIC of Compound B). • Cb=concentration of compound B in ppm, in the mixture, which produced an end point.
(§3) When the sum of Ca/CA and Cb/CB is greater than one, antagonism is indicated.

[2] = tested on: Staphylococcus aureus ATCC #6538; assay: MIC / synergy index test in 96 well microtiter plates, Gram positive bacteria; details: S. aureus ATCC #6538, contact time 24 hrs, 10% tryptic soy broth
Method: as §1, §2, §3

[3] = tested on: Candida albicans ATCC #10231; assay: MIC / synergy index test in 96 well microtiter plates, yeast; details: C. albicans ATCC #10231, contact time 24 hrs, potato dextrose broth
Method: as §1, with “Contact time for the bacteria was 24 and 48 hours, yeast was 48 and 72 hrs, and 3 and 7 days for mold.” left out
as §2, §3

| Compound | MIC of compound acting alone (CA / CB) [1] [ppm AI] | MIC of compound acting alone (CA / CB) [2] [ppm AI] | MIC of compound acting alone (CA / CB) [3] [ppm AI] |
| --- | --- | --- | --- |
| CC(CO)OCC(C)Oc1ccccc1 (stereo not drawn) [Dipropylene glycol phenyl ether] | 10000 | 19992 | 19992 |
| OCCOc1ccccc1 [Phenoxyethanol, 2-phenoxy-1-ethanol] | 3000 | 5000 | 5000 |
